Test results: patent publication US20060074109A1, “Use of inhibitors of 24-hydroxylase in the treatment of cancer” (Sapphire Therapeutics, Inc., priority 2004, published 2006)
Like-named read-outs stand apart in the source and are kept apart here.

What was measured:
[1] = test system: RARγ mRNA in SK-OV-3 cells; assay: RPA and quantitative RT-PCR of receptor mRNA; format: cell-based, human; settings: 24 hour
Text: (§1) Briefly, ^32P-labelled ([α-^32P]UTP, Amersham Biosciences, Buckinghamshire, UK) RNA-probes were synthesised using in vitro transcription reaction (In vitro transcription reaction kit, Pharmingen, San Diego, Calif.) using two different template sets.
(§2) RPLP0 was used as reference gene.

[2] = test system: RARα mRNA in SK-OV-3 cells; assay: RPA and quantitative RT-PCR of receptor mRNA; format: cell-based, human; settings: 24 hour
Text: as §1, §2

[3] = test system: RARγ mRNA in UT-OC-1 cells; assay: RPA and quantitative RT-PCR of receptor mRNA; format: cell-based, human; settings: 24 hour
Text: as §1, §2

[4] = test system: PC3 prostate cancer cells; assay: Cell growth, methylene blue uptake (Experiment VI); format: cell-based; settings: calcitriol alone, compared with OVCAR-3
Procedure: (§3) Culture conditions were the same as for Experiment I. Cell growth was measured using uptake of methylene blue (0.5% in 50% ethanol), followed by air drying and release of the dye in 1% sodium N-lauroyl sarcosine in PBS.

[5] = test system: DU145 prostate cancer cells; assay: Cell growth, methylene blue uptake (Experiment VI); format: cell-based; settings: calcitriol alone, compared with OVCAR-3
Procedure: as §3

[6] = test system: CWR22Rv-1 prostate cancer cells; assay: Cell growth, methylene blue uptake (Experiment VI); format: cell-based; settings: calcitriol alone, compared with OVCAR-3
Procedure: as §3

[7] = test system: 24OHase mRNA in OVCAR-3 cells; assay: Quantitative RT-PCR of 24OHase mRNA; format: cell-based, human; settings: 100 nM
Procedure: Ethanol was used as a vehicle, and it was also added to the control cells. For RNA extraction, the cells were collected 4, 6 and 24 hr after the treatment with vitamin D compound or vehicle. RNA extractions were done with TRIZOL reagent (GIBCO Invitrogen Corporation, Paisley, UK). The integrity of RNA samples was confirmed on gel electrophoresis. […] The reactions for 24-hydroxylase were performed in the LightCycler instrument (Roche Diagnostics, Basel, Switzerland) from 300 ng total RNA. PBGD (human porphobilinogendeaminase) mRNA was used as an […] control. […] Nucleotides, Tth DNA polymerase (DNA polymerase and reverse transcriptase activity), SYBR Green I and reaction buffer were included in the LightCycler-RNA Master SYBR Green I kit (Roche Diagnostics). […] Cell. […] Detection of fluorescent product was performed at the end of the extension step of each cycle. To verify the specific products, melting curve analysis and gel electrophoresis were done. The data were quantified by the Fit Points method with LightCycler Data Analysis software. […] Hormone treatments and RT-PCR were done twice.

UT-OC-1 cells = assay: Cell growth assay, crystal violet, 11 days; format: cell-based, human; settings: 11 days
Procedure: (§4) The human ovarian adenocarcinoma cell line, OVCAR-3 (ATCC, Manassas, Va.) was maintained, as recommended by the supplier, in RPMI 1640 medium (Sigma Aldrich, St. Louis, Mo.) supplemented with 10% FBS, 10 μg/ml insulin, 0.25% glucose and antibiotics (100 IU/ml penicillin, 100 μg/ml streptomycin). Human ovarian adenocarcinoma cell lines UT-OC-1, UT-OC-2, UT-OC-3, UT-OC-4, UT-OC-5 (Grenman, S., Engblom, P., Rantanen, V., Klemi, P. and Isola, J., “Cytogenetic Characterization of Five New Ovarian Carcinoma Cell Lines,” Acta Obstet. Gynecol. Scand., 76:83 (1997)) and SK-OV-3 and a human keratinocyte cell line HaCaT were grown in DMEM (Sigma Aldrich) with 10% FBS and antibiotics (100 IU/ml penicillin, 100 μg/ml streptomycin), and monkey kidney COS cells were maintained in DMEM/F12 (Sigma Aldrich) with 5% FBS. All cell lines were kept at 37° C. in a humidified 95% air/5% CO2 incubator.
(§5) When OVCAR-3 cells were on the logarithmic growth phase (70% confluent) the growth assay was started. For cell growth assay, 2,000 cell/200 μl/well were plated on 96-well culture plates. […] Ethanol was used as a vehicle, and it was also included in the control. The medium containing ethanol vehicle and/or hormones were changed to a fresh one every third day. Cell growth samples were taken 0, 1, 3, 5, 7, 9 and 11 days after the treatment.
(§6) Relative cell numbers were quantified as described previously (Kueng W, Silber E, Eppenberger U. Quantification of cells cultured on 96-well plates. Anal. Biochem., 182:16-9 (1989)). Cells were fixed on the bottom of the wells by addition of 10 μl of 11% glutaraldehyde solution in 0.1% phosphate buffer to 100 μl of medium. The plate was shaken 500 cycles/min for 15 min, washed 3 times by submersion in de-ionised water and air-dried. Fixed cells were stained with 0.1% solution of crystal violet dissolved in de-ionised water. After 20 min incubation, excess dye was removed by carefully washing with de-ionised water. The plate was air-dried prior to a bound dye solubilisation in 100 μl of 10% acetic acid. Relative cell number was given as absorbance units by measuring the optical density (590 nm) from each well using Victor 1420 multilabel counter (Wallac, Turku, Finland). Six determinations were used to calculate the mean optical density ±SD in each concentration at each time point. The absorbance value of day 0 (an overnight culture of 2,000 cells/well) was set as 0 by subtracting it from each value obtained from adjacent time-point measurements (days 1-11), and based on these values growth curves were created. Experiments were repeated 3-5 times. Day 11 was used to compare the effect of hormone treatments and 24OHase inhibitor. Statistical analyses were done using Student's t-test.
(§7) Cell growth samples were obtained after 11 days treatment.

UT-OC-4 cells = assay: Cell growth assay, crystal violet, 11 days; format: cell-based, human; settings: 11 days
Procedure: as §4, §5, §6, §7

OVCAR-3 cells = assay: Cell growth assay, crystal violet, 11 days; format: cell-based, human; settings: 11 days; for inhibition at 0.1 µM: 100 nM
Procedure: as §4, §5, §6
The cell growth response was determined as described in Experiment I. Briefly, cells were treated with indicated hormone concentrations or combinations of hormone and 24OHase inhibitor (VID400) for 11 days. The growth medium and hormones were changed to a fresh one every third day. After the treatment period, cells were fixed, stained with crystal violet, and the optical density (590 nm) was determined. The cell growth is presented as a percentage of ethanol-treated cells. The values represent the mean of 3 separate experiments ±SD. (*p<0.05, **p<0.001, ***p<0.0001, Student's t-test).
as §7

[8] = test system: OVCAR-3 ovarian cancer cells; assay: Cell growth, methylene blue uptake (Experiment VI); format: cell-based, human; settings: calcitriol alone
Procedure: as §3

[9] = test system: AIB1 mRNA in OVCAR-3 cells; assay: RPA of nuclear receptor coregulator mRNA; format: cell-based, human; settings: 10 μM, 24 hour
Text: Briefly, ^32P-labelled ([α-^32P]UTP, Amersham Biosciences, Buckinghamshire, UK) RNA-probes were synthesised using in vitro transcription reaction (In vitro transcription reaction kit, Pharmingen, San Diego, Calif.) using two different template sets. […] A coregulator set produces probes for NCoR (360 bp), SMRT (310 bp), pCAF (267 bp), CBP (234 bp), TIF2 (200 bp), AIB1 (179 bp), SRC-1a (145 bp) and −1e (160 bp) and p300 (127 bp); 18S (80 bp) was used as loading control with each probe set.

[10] = test system: RARβ mRNA in SK-OV-3 cells; assay: RPA and quantitative RT-PCR of receptor mRNA; format: cell-based, human; settings: 10 μM, 24 hour
Text: as §1, §2

[11] = test system: VDR mRNA in UT-OC-1 cells; assay: RPA and quantitative RT-PCR of receptor mRNA; format: cell-based, human; settings: 24 hour
Text: as §1, §2

[12] = test system: RARβ mRNA in OVCAR-3 cells; assay: RPA and quantitative RT-PCR of receptor mRNA; format: cell-based, human; settings: 10 μM, 24 hour
Text: as §1, §2

SK-OV-3 cells = assay: Cell growth assay, crystal violet, 11 days; format: cell-based, human; settings: alone (1 or 10 μM)
Procedure: as §4, §5, §6, §7

[13] = test system: 24OHase mRNA in UT-OC-5 cells; assay: RPA and RT-PCR of 24OHase induction; format: cell-based, human; settings: 24 h
Text: as §1, §2

[14] = test system: 24OHase mRNA in ovarian cancer cell lines; assay: RPA and RT-PCR of 24OHase induction, all cell lines; format: cell-based, human; settings: 100 nM, 24 h, every cell line
Text: as §1, §2

24-hydroxylase = target: T1, 24-hydroxylase (Homo sapiens, UniProt Q07973); settings: Kahraman et al., J. Med. Chem. 47:6854-6863 (2004); cited from earlier work
T1 sequence (Q07973 36-514): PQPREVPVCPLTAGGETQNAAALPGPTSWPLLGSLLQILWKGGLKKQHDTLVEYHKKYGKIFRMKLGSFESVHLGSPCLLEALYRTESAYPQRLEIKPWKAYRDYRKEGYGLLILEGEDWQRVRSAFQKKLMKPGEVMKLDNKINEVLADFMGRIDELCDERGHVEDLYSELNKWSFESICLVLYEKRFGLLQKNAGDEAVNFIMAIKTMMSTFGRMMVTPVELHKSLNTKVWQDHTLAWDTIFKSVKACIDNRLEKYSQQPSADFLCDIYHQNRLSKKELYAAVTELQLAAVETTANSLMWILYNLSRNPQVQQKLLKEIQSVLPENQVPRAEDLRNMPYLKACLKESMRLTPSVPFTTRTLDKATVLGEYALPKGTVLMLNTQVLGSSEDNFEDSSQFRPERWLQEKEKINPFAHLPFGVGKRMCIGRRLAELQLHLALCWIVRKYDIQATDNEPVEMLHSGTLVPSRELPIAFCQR

[15] = Homo sapiens, OVCAR-3, 264 h, read-out: inhibited growth compared to the control

Compound	increase of RARγ compared to control ([1]; 100 nM) [%]	RARα expression ([2]; 100 nM)	up regulation of RARγ compared to control ([3]; 100 nM) [%]	induction of 24OHase mRNA expression ([7]; 6 hr treatment) [fold]	induction of 24OHase mRNA expression ([7]; 24 hr treatment)	effect on cell growth (UT-OC-1 cells; 100 nM alone)	effect on cell growth (UT-OC-4 cells; 100 nM alone)	inhibition at 0.1 µM (OVCAR-3 cells; [15]) [%]	AIB1 expression [9]	RARβ expression [10]	increase of RARγ compared to control ([1]; 10 μM) [%]	RARα expression ([2]; 10 μM)	up regulation of RARγ compared to control ([3]; 10 μM) [%]	VDR expression ([11]; 10 μM)	RARβ expression [12]	effect on cell growth (UT-OC-1 cells; 10 μM alone)	effect on cell growth (UT-OC-4 cells; 10 μM alone)	effect on cell growth (SK-OV-3 cells)	inhibitory potency for 24-hydroxylase (24-hydroxylase)	further results
C=C1/C(=C\C=C2/CCC[C@]3(C)[C@@H]([C@H](C)CCCC(C)(C)O)CC[C@@H]23)C[C@@H](O)C[C@@H]1O [1,25(OH)2D3, calcitriol]	78±12	186±8 % of control	91±81	650	1,100 fold	did not inhibit the cell growth	did not restrain cell growth	74	–	–	–	–	–	–	–	–	–	–	–	effect on cell growth [4]: less pronounced; effect on cell growth [5]: less pronounced; effect on cell growth [6]: less pronounced; stimulated growth compared to the control (OVCAR-3 cells; 0.1 nM): 14%; effect on the cell growth (OVCAR-3 cells; 1 nM alone, Experiment IV): did not have an effect on the cell growth; effect on the cell growth (OVCAR-3 cells; 1 nM, Experiment I): did not have an effect on the cell growth; inhibition at 0.01 µM (OVCAR-3 cells; Homo sapiens, OVCAR-3, 264 h, 10 nM alone, Experiment IV, read-out: growth inhibition compared to the control): 26%; inhibition at 0.01 µM (OVCAR-3 cells; Homo sapiens, OVCAR-3, 264 h, 10 nM, Experiment I, read-out: inhibited growth compared to the control): 8%; effect on cell growth [8]: inhibited cell growth in a concentration-dependent manner
CC1=C(/C=C/C(C)=C\C=C\C(C)=C\C(=O)O)C(C)(C)CCC1 [9-CRA, 9-cis retinoic acid]	–	–	–	–	–	–	–	–	171 (±5) % of ethanol-treated control	345±17 % of control	119±52	195±1 % of control	44±15	58±25 % of control	276±68 % of control	inhibited cell growth with equal magnitude	inhibited UT-OC-4 cell growth	inhibited the growth of SK-OV-3 cells	–	–
CC1=C(/C=C/C(C)=C/C=C/C(C)=C/C(=O)O)C(C)(C)CCC1 [ATRA, all-trans-retinoic acid]	–	–	–	–	–	–	–	–	160 (±10) % of ethanol-treated control	657±30 % of control	119±19	293±70 % of control	83±66	53±11 % of control	214±127 % of control	inhibited cell growth with equal magnitude	inhibited UT-OC-4 cell growth	inhibited the growth of SK-OV-3 cells	–	–
C=C1/C(=C\C=C2/CCC[C@]3(C)[C@@H]([C@H](C)/C=C/C=C/C(O)(CC)CC)CC[C@@H]23)C[C@@H](O)C[C@@H]1O [EB 1089]	51±7	134±10 % of control	47±7	600	1,000 fold	did not inhibit the cell growth	did not restrain cell growth	84	–	–	–	–	–	–	–	–	–	–	–	24OHase induction relative to 100 nM 1,25(OH)2D3 [13]: more than two-fold stronger inducer; VDR expression ([11]; 100 nM): 47±8 % of control; induction of 24OHase expression compared with 1,25(OH)2D3 [14]: more effective in inducing 24OHase expression; inhibition at 0.001 µM (OVCAR-3 cells; Homo sapiens, OVCAR-3, 264 h, 1 nM, read-out: inhibited growth compared to the control): 73%; effect on cell proliferation (OVCAR-3 cells; alone (10 or 100 nM), Experiment V): markedly inhibited the proliferation
C=C1/C(=C\C=C2/CCCC3(C)C2CC[C@@H]3[C@H](C)CCS(=N)(=O)c2ccc(F)cc2)C[C@@H](O)C[C@@H]1O (stereo partly shown) [Formula VI]	–	–	–	–	–	–	–	–	–	–	–	–	–	–	–	–	–	–	Only slightly less potent	–
C=C1/C(=C\C=C2/CCCC3(C)C2CC[C@@H]3[C@H](C)CCS(=N)(=O)c2ccccc2)C[C@@H](O)C[C@@H]1O (stereo partly shown) [Formula V]	–	–	–	–	–	–	–	–	–	–	–	–	–	–	–	–	–	–	most potent compound	–
